Compound: O=C(Nc1cc(C(F)(F)F)cc(C(F)(F)F)c1)c1cc(Cl)ccc1O [IMD-0354] + CS(=O)(=O)N1CCN(Cc2cc3nc(-c4cccc5[nH]ncc45)nc(N4CCOCC4)c3s2)CC1 [Pictilisib] (partner 1 µM)
Assay: relative viability (nuclei count vs DMSO), 5 days (fraction); higher = more cells survive
Conditions: first compound 1.265 µM
Outline: (§1)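 Medians of duplicate plates are given as relative viability. That measure is the nuclei count in treated wells divided by the count in vehicle wells. Counts were taken on 4× images of lung cancer cell lines in 1536-well plates, 5 days after pin-tool dosing the day after seeding with one drug alone or a fixed anchor-drug dose plus five library-drug doses (not always all listed) in √10 steps.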

Cell Line | relative viability
COR-L 105 | 0.278
IA-LM | 0.0793
LOU-NH91 | 0.203
ChaGo-K-1 | 0.216
A549 | 0.0721
NCI-H2009 | 0.114
NCI-H661 | 0.264
SW 1573 | 0.418
NCI-H1299 | 0.0957
CAL-12T | 0.189
NCI-H2228 | 0.365
NCI-H2023 | 0.0996
NCI-H1563 | 0.387
SK-MES-1 | 0.261

Same assay, conditions: first compound 4 µM

Cell Line | relative viability
NCI-H727 | 0.238
NCI-H1650 | 0.191
EBC-1 | 0.157
NCI-H1703 | 0.123
NCI-H1993 | 0.662
SK-LU-1 | 0.233
NCI-H838 | 0.26
LCLC-103H | 0.345
NCI-H520 | 0.117
NCI-H2126 | 0.302
EMC-BAC-2 | 0.225
NCI-H2085 | 0.303
Calu-6 | 0.0686
HCC-366 | 0.0681
NCI-H1666 | 0.201
NCI-H596 | 0.34
NCI-H1395 | 0.348
NCI-H2087 | 0.228

Cell Line | relative viability
LK-2 | 0.246
H3255 | 0.251
COR-L23 | 0.211
COR-L 105 | 0.293
IA-LM | 0.112
LOU-NH91 | 0.209
ChaGo-K-1 | 0.301
A549 | 0.124
NCI-H2009 | 0.0666
NCI-H661 | 0.252
SW 1573 | 0.137
NCI-H1299 | 0.0657
CAL-12T | 0.178
NCI-H2228 | 0.247
NCI-H2023 | 0.0899
NCI-H1563 | 0.318
SK-MES-1 | 0.226

Compound: O=C(Nc1cc(C(F)(F)F)cc(C(F)(F)F)c1)c1cc(Cl)ccc1O [IMD-0354] + NC(=O)Nc1cc(-c2cccc(F)c2)sc1C(=O)N[C@H]1CCCNC1 [AZD7762] (partner 0.2 µM)
Assay: as above
Conditions: first compound 0.04 µM
Outline: as §1

Cell Line | relative viability
NCI-H522 | 1.05
NCI-H727 | 0.589
NCI-H1703 | 0.124
NCI-H1993 | 0.853
NCI-H838 | 0.981
LCLC-103H | 0.952
NCI-H2126 | 1.24
EMC-BAC-2 | 1.19
NCI-H2085 | 1.18
HCC-366 | 0.277
NCI-H1666 | 0.777
NCI-H596 | 0.906
NCI-H1395 | 0.394
NCI-H2087 | 1.6
NCI-H2342 | 0.539
LK-2 | 0.251
H3255 | 0.812
LOU-NH91 | 0.827
ChaGo-K-1 | 0.912
SW 900 | 0.649
NCI-H1648 | 0.616
CAL-12T | 0.655

Same assay, conditions: first compound 0.1265 µM

Cell Line | relative viability
NCI-H522 | 0.815
NCI-H727 | 0.727
NCI-H1703 | 0.0845
NCI-H1993 | 0.645
NCI-H838 | 0.9
LCLC-103H | 0.907
NCI-H2126 | 1.05
EMC-BAC-2 | 1.13
NCI-H2085 | 1.12
HCC-366 | 0.361
NCI-H1666 | 0.957
NCI-H596 | 0.959
NCI-H1395 | 0.427
NCI-H2087 | 1.07
NCI-H2342 | 0.509
LK-2 | 0.39
H3255 | 1
LOU-NH91 | 0.672
ChaGo-K-1 | 0.937
SW 900 | 0.693
NCI-H1648 | 0.715
CAL-12T | 0.744

Same assay, conditions: first compound 0.4 µM

Cell Line | relative viability
NCI-H522 | 0.702
NCI-H727 | 0.484
NCI-H1703 | 0.141
NCI-H1993 | 0.711
NCI-H838 | 0.68
LCLC-103H | 0.554
NCI-H2126 | 0.697
EMC-BAC-2 | 0.822
NCI-H2085 | 0.754
HCC-366 | 0.148
NCI-H1666 | 0.689
NCI-H596 | 0.877
NCI-H1395 | 0.383
NCI-H2087 | 0.637
NCI-H2342 | 0.469
H3255 | 0.573
LOU-NH91 | 0.284
ChaGo-K-1 | 0.596
SW 900 | 0.441
NCI-H1648 | 0.526
CAL-12T | 0.357

Same assay, conditions: first compound 1.265 µM

Cell Line | relative viability
NCI-H522 | 0.766
NCI-H727 | 0.44
NCI-H1703 | 0.142
NCI-H1993 | 0.328
NCI-H838 | 0.714
LCLC-103H | 0.47
NCI-H2126 | 0.566
EMC-BAC-2 | 0.443
NCI-H2085 | 0.324
HCC-366 | 0.0408
NCI-H1666 | 0.623
NCI-H596 | 0.519
NCI-H1395 | 0.319
NCI-H2087 | 0.235
NCI-H2342 | 0.31
LK-2 | 0.105
H3255 | 0.385
LOU-NH91 | 0.151
ChaGo-K-1 | 0.218
SW 900 | 0.24
NCI-H1648 | 0.705
CAL-12T | 0.261

Same assay, conditions: first compound 4 µM

Cell Line | relative viability
NCI-H522 | 0.461
NCI-H727 | 0.398
NCI-H1703 | 0.117
NCI-H1993 | 0.529
NCI-H838 | 0.688
LCLC-103H | 0.257
NCI-H2126 | 0.346
EMC-BAC-2 | 0.433
NCI-H2085 | 0.359
HCC-366 | 0.048
NCI-H1666 | 0.467
NCI-H596 | 0.551
NCI-H1395 | 0.384
NCI-H2087 | 0.392
NCI-H2342 | 0.385
LK-2 | 0.172
H3255 | 0.274
LOU-NH91 | 0.266
ChaGo-K-1 | 0.254

— the supplement of paper PMC10307832
